Reference: patent US12637467B2, “Inhibitor of BTK and mutants thereof” (Newave Pharmaceutical Inc., priority 2019, dated 2026)

Assays:
REC-1 xenograft = REC-1 xenograft model; format: in vivo, mice; conditions: for Tumor volume: BIDX28
Description: Typically, athymic nude mice (CD-1 nu/nu) or SCID mice are obtained at age 6-8 weeks from vendors and acclimated for a minimum 7-day period. The cancer cells are then implanted into the nude mice. Depending on the specific tumor type, tumors are typically detectable about two weeks following implantation. When tumor sizes reach ˜100-200 mm^3, the animals with appreciable tumor size and shape are randomly assigned into groups of 8 mice each, including one vehicle control group and treatment groups. Dosing varies depending on the purpose and length of each study, which typically proceeds for about 3-4 weeks. Tumor sizes and body weight are typically measured three times per week. In addition to the determination of tumor size changes, the last tumor measurement is used to generate the tumor size change ratio (T/C value), a standard metric developed by the National Cancer Institute for xenograft tumor evaluation. In most cases, % T/C values are calculated using the following formula: % T/C=100×ΔT/ΔC if ΔT>0. When tumor regression occurred (ΔT<0), however, the following formula is used: % T/T0=100×ΔT/T0. Values of <42% are considered significant.

WT BTK [1] = target: T1, WT BTK (Homo sapiens, UniProt Q06187); test: In vitro dialysis assay (irreversibility assay), WT BTK; format: biochemical; conditions: for Recovery after 24 h dialysis: 0.003 mM compound pre-incubated with 2 nM BTK for 2 hr, dialyzed 24 hr against buffer with 40 mM ATP, BTK activity vs non-dialyzed samples; for Conclusion (WT BTK): reversible or irreversible inhibition after 24 hr dialysis
Experimental: The compound-enzyme complex was dialyzed against the same buffer supplemented with 40 mM ATP for 24 hr. Cumulative dialysis factor >160,000×. After dialysis, the BTK activity was measured in the presence 40 mM ATP and 1 mM substrate peptide and compared to that in non-dialyzed samples. Assay buffer: 100 mM HEPES, pH7.5; 0.1% BSA, 0.01% Triton-X 100; 5 mM MgCl2; 1 mM DTT.

WT BTK [2] = target: T1, WT BTK; test: Caliper-based kinase assay, WT BTK; format: biochemical; conditions: 0.5 nM enzyme, 16 μM ATP, 3 h at room temperature; read-out: WT BTK IC50 (nM) (irreversible inhibition)
Experimental: (§1) The reaction was then terminated with EDTA, final concentration 20 mM and the phosphorylated reaction product was quantified on a Caliper Desktop Profiler (Caliper LabChip 3000).

C481S BTK = C481S BTK (Homo sapiens, UniProt Q06187, C481S); test: Caliper-based kinase assay, C481S BTK; format: biochemical; conditions: 0.5 nM enzyme, 16 μM ATP, 3 h at room temperature; read-out: C481S BTK IC50 (nM) (reversible inhibition)
Experimental: as §1

[3] = 10 mg/kg po, day 26 of the study
[4] = 50 mg/kg po, day 28 of the study

T1 sequence (Q06187 whole entry): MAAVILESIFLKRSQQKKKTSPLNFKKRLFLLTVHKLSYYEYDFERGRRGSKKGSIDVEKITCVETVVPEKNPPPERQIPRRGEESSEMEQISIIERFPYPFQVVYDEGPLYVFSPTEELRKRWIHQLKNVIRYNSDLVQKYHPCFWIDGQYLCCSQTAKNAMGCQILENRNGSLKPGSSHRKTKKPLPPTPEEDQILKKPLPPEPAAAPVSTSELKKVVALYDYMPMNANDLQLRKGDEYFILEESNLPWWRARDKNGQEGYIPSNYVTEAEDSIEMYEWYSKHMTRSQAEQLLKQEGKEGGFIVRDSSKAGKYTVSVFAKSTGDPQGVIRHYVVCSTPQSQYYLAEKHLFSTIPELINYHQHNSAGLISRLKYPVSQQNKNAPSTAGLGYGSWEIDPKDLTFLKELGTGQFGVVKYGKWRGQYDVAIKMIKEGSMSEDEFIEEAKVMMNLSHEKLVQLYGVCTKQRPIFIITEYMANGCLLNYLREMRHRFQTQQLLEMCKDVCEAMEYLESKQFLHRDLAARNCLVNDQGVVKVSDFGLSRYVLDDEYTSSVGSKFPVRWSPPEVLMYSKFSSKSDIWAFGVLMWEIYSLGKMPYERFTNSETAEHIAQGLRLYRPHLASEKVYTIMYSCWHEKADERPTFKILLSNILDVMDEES
Chain of C481S BTK (Q06187 whole entry C481S): as the sequence (Q06187 whole entry) above, with C481S counted along it

| Compound | Recovery after 24 h dialysis (WT BTK [1]) [%] | Conclusion (WT BTK) (WT BTK [1]) | other results |
| --- | --- | --- | --- |
| CC#CC(=O)N1CCC[C@H]1c1nc(-c2ccc(C(=O)Nc3ccccn3)cc2)c2c(N)nccn12 [ACP-196, Acalabrutinib, reference compound] |  |  | Tumor volume (REC-1 xenograft; [3]): 672 mm^3; Tumor volume (REC-1 xenograft; [4]): 108 mm^3 |
| C=CC(=O)Nc1cc(Nc2nc(-c3ccnc(N4CCn5c(cc6c5CC(C)(C)C6)C4=O)c3CO)cn(C)c2=O)ccc1N1CCN(C2CCOCC2)C[C@@H]1C [Example 22, N-(5-[[6-(2-[4,4-dimethyl-9-oxo-1,10-diazatricyclo[6.4.0.0^[2,6]]dodeca-2(6),7-dien-10-yl]-3-(hydroxymethyl)pyridin-4-yl)-4-methyl-3-oxopyrazin-2-yl]amino]-2-[(2S)-2-methyl-4-(oxan-4-yl)piperazin-1-yl]phenyl)prop-2-enamide] | ~1 | Irreversible/covalent inhibition | Tumor volume (REC-1 xenograft; [3]): 450 mm^3; Tumor volume (REC-1 xenograft; 12.5 mg/kg po, day 28 of the study): 201 mm^3; Tumor volume (REC-1 xenograft; 25 mg/kg po, day 28 of the study): 58 mm^3; Tumor volume (REC-1 xenograft; [4]): 56 mm^3; efficacy compared with Acalabrutinib (REC-1 xenograft; REC-1 xenograft, 10 mg/kg, day 26 of the study): better efficacy than Acalabrutinib; reduction of tumor growth (REC-1 xenograft; REC-1 xenograft, 12.5-50 mg/kg, day 28 of the study): dose-dependent reduction of tumor growth |
| C=CC(=O)Nc1cc(Nc2nc(-c3ccnc(N4CCn5c(cc6c5CC(C)(C)C6)C4=O)c3C(F)(F)F)cn(C)c2=O)ccc1N1CCN(C2COC2)C[C@@H]1C [Example 28, (S)—N-(5-((6-(2-(7,7-dimethyl-1-oxo-1,3,4,6,7,8-hexahydro-2H-cyclopenta[4,5]pyrrolo[1,2-a]pyrazin-2-yl)-3-(trifluoromethyl)pyridin-4-yl)-4-methyl-3-oxo-3,4-dihydropyrazin-2-yl)amino)-2-(2-methyl-4-(oxetan-3-yl)piperazin-1-yl)phenyl)acrylamide] |  |  | IC50 (WT BTK [2]): > 100 nM; IC50 (C481S BTK): > 1000 nM |
| C=CC(=O)Nc1cc(Nc2nc(-c3ccnc(N4CCc5ncccc5C4=O)c3CO)cn(C)c2=O)ccc1N1CCN(C2COC2)C[C@@H]1C [Example 31, N-[5-([6-[3-(hydroxymethyl)-2-(5-oxo-7,8-dihydro-1,6-naphthyridin-6-yl)pyridin-4-yl]-4-methyl-3-oxopyrazin-2-yl]amino)-2-[(2S)-2-methyl-4-(oxetan-3-yl)piperazin-1-yl]phenyl]prop-2-enamide] |  |  | IC50 (WT BTK [2]): > 100 nM |
| C=CC(=O)Nc1cc(Nc2nc(-c3ccnc(N4CCc5ccncc5C4=O)c3CO)cn(C)c2=O)ccc1N1CCN(C2COC2)C[C@@H]1C [Example 32, N-[5-([6-[3-(hydroxymethyl)-2-(1-oxo-3,4-dihydro-2,7-naphthyridin-2-yl)pyridin-4-yl]-4-methyl-3-oxopyrazin-2-yl]amino)-2-[(2S)-2-methyl-4-(oxetan-3-yl)piperazin-1-yl]phenyl]prop-2-enamide] |  |  | IC50 (WT BTK [2]): > 100 nM |
| C=CC(=O)Nc1cc(Nc2nc(-c3ccnc(N4CCc5cccnc5C4=O)c3CO)cn(C)c2=O)ccc1N1CCN(C2COC2)C[C@@H]1C [Example 33, N-[5-([6-[3-(hydroxymethyl)-2-(8-oxo-5,6-dihydro-1,7-naphthyridin-7-yl)pyridin-4-yl]-4-methyl-3-oxopyrazin-2-yl]amino)-2-[(2S)-2-methyl-4-(oxetan-3-yl)piperazin-1-yl]phenyl]prop-2-enamide] |  |  | IC50 (WT BTK [2]): > 100 nM |
| C=CC(=O)Nc1cc(Nc2nc(-c3ccnc(N4CCn5c(cc6c5CC(C)(C)C6)C4=O)c3C)cn(C)c2=O)ccc1N1CCN(C2CCOCC2)C[C@@H]1C [Example 40, N-(5-[[6-(2-[4,4-dimethyl-9-oxo-1,10-diazatricyclo[6.4.0.0^[2,6]]dodeca-2(6),7-dien-10-yl]-3-methylpyridin-4-yl)-4-methyl-3-oxopyrazin-2-yl]amino]-2-[(2S)-2-methyl-4-(oxan-4-yl)piperazin-1-yl]phenyl)prop-2-enamide] | ~1 | Irreversible/covalent inhibition |  |
| C=CC(=O)Nc1cc(Nc2nc(-c3ccnc(N4CCn5c(cc6c5CC(C)(C)C6)C4=O)c3C)cn(C)c2=O)cnc1N1CCN(C2COC2)C[C@@H]1C [Example 46, N-(5-[[6-(2-[4,4-dimethyl-9-oxo-1,10-diazatricyclo[6.4.0.0^[2,6]]dodeca-2(6),7-dien-10-yl]-3-methylpyridin-4-yl)-4-methyl-3-oxopyrazin-2-yl]amino]-2-[(2S)-2-methyl-4-(oxetan-3-yl)piperazin-1-yl]pyridin-3-yl)prop-2-enamide] | ~1 | Irreversible/covalent inhibition |  |

The next lines start with results.

| Recovery after 24 h dialysis (WT BTK [1]) [%] | Conclusion (WT BTK) (WT BTK [1]) | Compound | other results |
| --- | --- | --- | --- |
| ~1 | Irreversible/covalent inhibition | C=CC(=O)Nc1cc(Nc2nc(-c3ccnc(N4CCn5c(cc6c5CC(C)(C)C6)C4=O)c3CO)cn(C)c2=O)ccc1N1CCN(C2CCOC2)C[C@@H]1C (stereo partly drawn) [Example 39, N-(5-[[6-(2-[4,4-dimethyl-9-oxo-1,10-diazatricyclo[6.4.0.0^[2,6]]dodeca-2(6),7-dien-10-yl]-3-(hydroxymethyl)pyridin-4-yl)-4-methyl-3-oxopyrazin-2-yl]amino]-2-[(2S)-2-methyl-4-(oxolan-3-yl)piperazin-1-yl]phenyl)prop-2-enamide] |  |
| ~1 | Irreversible/covalent inhibition | C=CC(=O)Nc1cc(Nc2nc(-c3ccnc(N4CCn5c(cc6c5CC(C)(C)C6)C4=O)c3CO)cn(C)c2=O)ccc1C1C(=O)N(C)CCN1C1COC1 (centres unmarked) [Example 41] |  |
| ~1 | Irreversible/covalent inhibition | C=CC(=O)Nc1cc(Nc2nc(-c3ccnc(N4CCn5c(cc6c5CC(C)(C)C6)C4=O)c3CO)cn(C)c2=O)ccc1C1CN(C2COC2)CC(=O)N1C (centres unmarked) [Example 42, N-(5-[[6-(2-[4,4-dimethyl-9-oxo-1,10-diazatricyclo[6.4.0.0^[2,6]]dodeca-2(6),7-dien-10-yl]-3-(hydroxymethyl)pyri-din-4-yl)-4-methyl-3-oxopyrazin-2-yl]amino]-2-[1-methyl-4-(oxetan-3-yl)-6-oxopiperazin-2-yl]phenyl)prop-2-enamide] |  |
|  | Irreversible/covalent inhibition | C=CC(=O)Nc1cc(Nc2nc(-c3ccnc(N4CCn5c(cc6c5CC(C)(C)C6)C4=O)c3CO)cn(C)c2=O)ccc1C1CN(C)C(=O)CN1C1COC1 (centres unmarked) [Example 43] |  |
|  | Irreversible/covalent inhibition | C=CC(=O)Nc1cc(Nc2nc(-c3ccnc(N4CCc5c(sc6c5CCCC6)C4=O)c3C)cn(C)c2=O)ccc1N1CCN(C2COC2)C[C@@H]1C [Example 44, (S)—N-(2-(2-methyl-4-(oxetan-3-yl)piperazin-1-yl)-5-((4-methyl-6-(3-methyl-2-(1-oxo-3,4,5,6,7,8-hexahydrobenzo [4, 5]thieno[2,3-c]pyridin-2(1H)-yl)pyridin-4-yl)-3-oxo-3,4-dihydropyrazin-2-yl)amino)phenyl) acrylamide] |  |
| ~1 | Irreversible/covalent inhibition | C=CC(=O)Nc1cc(Nc2nc(-c3ccnc(N4CCn5c(cc6c5CC(C)(C)C6)C4=O)c3C)cn(C)c2=O)ccc1N1CCN(C2COC2)CC1(C)C [Example 45, N-[2-[2,2-dimethyl-4-(oxetan-3-yl)piperazin-1-yl]-5-[[6-(2-[4,4-dimethyl-9-oxo-1,10-diazatricyclo[6.4.0.0^[2,6]]dodeca-2(6),7-dien-10-yl]-3-methylpyridin-4-yl)-4-methyl-3-oxopyrazin-2-yl]amino]phenyl]prop-2-enamide] |  |
